This is an account of results in patent US20060045856A1, “Composition containing a dihydroxyacetone precursor” (priority 2004, published 2006).

A short description of series [1]: Maillard browning test, tanning test 1 (test substance in miglyol reacted with lysine). As to conditions: for Maillard browning colour after reacting with lysine: Tanning test 1, 0.1M in miglyol + 1M Lysine aqueous solution, room temperature. An excerpt:
(§1) The ability of compounds according to formula I to induce an artificial tanning on the skin can roughly be estimated using a simple Maillard browning test. This visual test is based on the principle that the reaction of skin with DHA to produce an artificial tan proceeds through a complex set of reactions (Maillard reaction) with free amino acids of skin proteins, particularly with arguinine, lysine and histidine.
(§2) The tanning ability of 2,5-dipalmitoyloxymethyl-[1,4]dioxane-2,5-diol (A) is evaluated by means of the Maillard browning effect after reacting with lysine in different solvents (water and the cosmetic oil miglyol) and compared with those of reference compounds: DHA and monomeric DHA-palmitic acid monoester (B) under the same conditions. Besides that, the tanning effect of 2,5-dipalmitoyloxymethyl-[1,4]dioxane-2,5-diol in the presence of lipases (enzymes used by the body to hydrolyse fats) is also studied.

Series [2] in a line: Maillard browning test, tanning test 2 (aqueous test substance reacted with lysine, with or without lipase). As to conditions: room temperature; for Maillard browning colour after reacting with lysine: 0.1M aqueous solution or suspension + 1M Lysine aqueous solution; for Maillard browning colour after reacting with lysine, + 1% lipase: aqueous.
Description: as §1, §2

Series [3] is described as follows: DHA monomer/dimer content in aqueous solution at elevated temperature. As to conditions: DHA solutions at 30-50° C. It is filed as physicochemical. An excerpt:
It is assumed that the improved tanning effect at elevated temperatures in the case of 1,3-dihydroxyacetone is connected with the following mechanism. As a raw material, DHA is in the form of a powder and consists of dimers. Dissolved in water, some of the dimers convert to the active monomeric form, which brings about the tanning reaction. At an elevated water temperature, the amount of monomers increases. […] At the same time, the elevated temperature increases the reaction rate of the tanning reaction. […] It is therefore preferred according to the invention when the solution of the self-tanning substance is heated for about 15 min, but at least about 10 min, before the solution is applied to the human skin.

On to `O=C(CO)CO` [DHA, 1,3-dihydroxyacetone], for which the “Maillard browning colour after reacting with lysine” value is “Light yellow” in series [1] (5 h), “Brown” in series [1] (1 day), “Dark brown” in series [1] (8 days) and “Brown” in series [2] (1 h). The “More active DHA monomers present than in DHA solutions at 20° C.” value in series [3] is “up to 30%”.
The melting point is the temperature, or range, at which the solid turns liquid. The compound `CCCCCCCCCCCCCCCC(=O)OCC1(O)COC(O)(COC(=O)CCCCCCCCCCCCCCC)CO1` (stereo not shown) [A, 2,5-dipalmitoyloxymethyl-[1,4]dioxane-2,5-diol] yielded a melting point of 95.2 °C. Besides, the “Maillard browning colour after reacting with lysine” value in series [1] (5 h) is on record as “Light yellow”. The “Maillard browning colour after reacting with lysine” value in series [1] (1 day) is “Yellow”. Moreover, the “Maillard browning colour after reacting with lysine” value in series [1] (8 days) was “Brown”. The “Ability to undergo Maillard browning reactions” value in series [1] (overall conclusion from tanning tests 1 and 2) was “able to undergo Maillard browning reactions”. For the same compound, the “Maillard browning colour after reacting with lysine” value in series [2] (2 days) is listed as “Brown”.
`CCCCCCCCCCCCCCCC(=O)OCC(=O)CO` [B, monomeric DHA-palmitic acid monoester]: the “Maillard browning colour after reacting with lysine” value in series [1] (1 h) is “Light yellow”; in series [1] (5 h) it was “Yellow”; in series [1] (1 day), “Brown”; in series [1] (8 days) it was “Dark brown”; in series [2] (5 h), “Yellow”; in series [2] (1 day) it was “Brown”. In addition, the figures for the “Maillard browning colour after reacting with lysine, + 1% lipase” value in series [2] (1 h) and in series [2] (1 day) were “Yellow” and “Brown”, respectively.
